Test results: patent US20250230193A1, “CYCLIC COMPOUND HAVING SELECTIVE KRAS INHIBITORY EFFECT ON HRAS AND NRAS” (CHUGAI SEIYAKU KABUSHIKI KAISHA, priority 2022, published 2025)
Where a SMILES comes first, the peptide text is derived from it. Bridges are numbered along the chain shown (N, C = ends). [ ]: non-standard residue; d: D form. The star is where a group is joined. hPhe(3-Cl-4-CF3) = N[C@@H](CCc1ccc(C(F)(F)F)c(Cl)c1)C(=O)O; NPrPhe(4-CF3) = CCCN[C@@H](Cc1ccc(C(F)(F)F)cc1)C(=O)O; NMeGly(cPent) = CN[C@H](C(=O)O)C1CCCC1; Pro(4,4-F2) = O=C(O)[C@@H]1CC(F)(F)CN1; Hyp = O=C(O)[C@@H]1C[C@@H](O)CN1; NMeD = CN[C@@H](CC(=O)O)C(=O)O; NMeL = CN[C@@H](CC(C)C)C(=O)O; Morpholide = C1CN(*)CCO1; Ac5c = NC1(C(=O)O)CCCC1; Aze = O=C(O)[C@@H]1CCN1; Ac4c = NC1(C(=O)O)CCC1; NEtG = CCNCC(=O)O; Sar = CNCC(=O)O

How the values were obtained:
[1] = biological target: GDP-bound NRAS wild-type protein (Homo sapiens, UniProt P01111); assay: Binding to NRAS by surface plasmon resonance (SPR), Single Cycle Kinetics; details: SPR; for NRAS/KRAS (ratio of KD value for NRAS to KD value for KRAS): GDP-bound NRAS wild-type vs GDP-bound KRAS wild-type
Chain of GDP-bound NRAS wild-type protein (P01111 whole entry): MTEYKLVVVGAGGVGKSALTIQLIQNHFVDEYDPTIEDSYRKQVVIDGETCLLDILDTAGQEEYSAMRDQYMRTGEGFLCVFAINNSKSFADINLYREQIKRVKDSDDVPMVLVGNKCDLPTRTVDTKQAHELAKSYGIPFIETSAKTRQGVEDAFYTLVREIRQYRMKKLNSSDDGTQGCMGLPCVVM

[2] = biological target: GDP-bound HRAS wild-type protein (Homo sapiens, UniProt P01112); assay: Binding to HRAS by surface plasmon resonance (SPR), Single Cycle Kinetics; details: SPR; for HRAS/KRAS (ratio of KD value for HRAS to KD value for KRAS): GDP-bound HRAS wild-type vs GDP-bound KRAS wild-type
Chain of GDP-bound HRAS wild-type protein (P01112 whole entry): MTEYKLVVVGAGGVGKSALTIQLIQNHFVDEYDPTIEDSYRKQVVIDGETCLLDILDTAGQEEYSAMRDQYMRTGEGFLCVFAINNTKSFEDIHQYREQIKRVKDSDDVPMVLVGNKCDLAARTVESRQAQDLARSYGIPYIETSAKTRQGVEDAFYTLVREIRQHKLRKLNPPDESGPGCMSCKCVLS

For `C#CC[C@H]1C(=O)N[C@@H]([C@@H](C)CC)C(=O)N(C)CC(=O)N(C)[C@H]2CCCCCN(C2=O)[C@@H](Cc2ccc(C(F)(F)F)cc2)C(=O)N(C)CC(=O)N[C@@H](CCc2cc(F)c(C(F)(F)F)c(F)c2)C(=O)N2C[C@H](OCC)C[C@H]2C(=O)NC2(CCC2)C(=O)N(C)[C@@H](C2CCCC2)C(=O)N(C)[C@H](C(=O)N2CCOCC2)CC(=O)N1C` [PP0681], the “NRAS/KRAS (ratio of KD value with respect to GDP-bound NRAS wild-type protein to KD value with respect to KRAS)” value [1] was “B (a compound having 3 or more and less than 10 is denoted as B)” and the “HRAS/KRAS (ratio of KD value with respect to GDP-bound HRAS wild-type protein to KD value with respect to KRAS)” value [2] was “B (a compound having 3 or more and less than 10 is denoted as B)”.

`CCO[C@@H]1C[C@H]2C(=O)N(C)C3(CC(C)(C)C3)C(=O)N(C)[C@@H](C3CCCC3)C(=O)N(C)[C@H](C(=O)N(C)C)CC(=O)N(C)[C@H]3CCCCCCc4ccc(cc4)C[C@@H](C(=O)N(C)CC(=O)N[C@@H](CCc4ccc(C(F)(F)F)c(OC)c4)C(=O)N2C1)N1CC/C=C\C[C@@H](C1=O)N(C)C(=O)CN(C)C(=O)[C@H]([C@@H](C)CC)NC3=O` [PP3090] was tested, and the “NRAS/KRAS (ratio of KD value with respect to GDP-bound NRAS wild-type protein to KD value with respect to KRAS)” value ([1]; GDP-bound wild-type proteins) was “A (a compound having 10 or more and less than 20 is denoted as A)” and the “HRAS/KRAS (ratio of KD value with respect to GDP-bound HRAS wild-type protein to KD value with respect to KRAS)” value ([2]; GDP-bound wild-type proteins) was “B (a compound having 3 or more and less than 10 is denoted as B)”.

`CCCN1C(=O)[C@@H]2CCN2C(=O)CN(C)C(=O)[C@H]([C@@H](C)CC)NC(=O)[C@H](CC(C)C)N(C)C(=O)C[C@@H](C(=O)N(C)C)NC(=O)[C@H](C2CCCC2)N(C)C(=O)C2(CCC2)NC(=O)[C@@H]2C[C@@H](OCC)CN2C(=O)[C@H](CCc2ccc(C(F)(F)F)c(Cl)c2)NC(=O)CN(C)C(=O)[C@@H]1Cc1ccc(C(F)(F)F)cc1` [PP0390] ([NMeL]I[Sar][Aze][NPrPhe(4-CF3)][Sar][hPhe(3-Cl-4-CF3)][Hyp](Et)[Ac4c][NMeGly(cPent)]D-NMe2; lactam N-11) was tested, and the “NRAS/KRAS (ratio of KD for GDP-bound NRAS wild-type to KD for KRAS)” value [1] was “C (A compound having a KD ratio of 0.1 or more and less than 3 is denoted as C)” and the “HRAS/KRAS (ratio of KD for GDP-bound HRAS wild-type to KD for KRAS)” value [2] was “B (a compound having 3 or more and less than 10 is denoted as B)”.

In the case of `CCCN1C(=O)CN(C)C(=O)CN(CC)C(=O)[C@H]([C@@H](C)CC)NC(=O)[C@H](CC(C)C)N(C)C(=O)C[C@@H](C(=O)N2CCOCC2)NC(=O)[C@H](C2CCCC2)N(C)C(=O)C2(CCC2)NC(=O)[C@@H]2CC(F)(F)CN2C(=O)[C@H](CCc2ccc(C(F)(F)F)c(Cl)c2)NC(=O)CN(C)C(=O)[C@@H]1Cc1ccc(C(F)(F)F)cc1` [PP0334] ([NMeL]I[NEtG][Sar][NPrPhe(4-CF3)][Sar][hPhe(3-Cl-4-CF3)][Pro(4,4-F2)][Ac4c][NMeGly(cPent)]D-Morpholide; lactam N-11), the “NRAS/KRAS (ratio of KD for GDP-bound NRAS wild-type to KD for KRAS)” value [1] was “B (a compound having 3 or more and less than 10 is denoted as B)” and the “HRAS/KRAS (ratio of KD for GDP-bound HRAS wild-type to KD for KRAS)” value [2] was “C (A compound having a KD ratio of 0.1 or more and less than 3 is denoted as C)”.

In the case of `CCCN1C(=O)[C@@H]2CCN2C(=O)CN(C)C(=O)[C@H]([C@@H](C)CC)NC(=O)[C@H](CC(C)C)N(C)C(=O)C[C@@H](C(=O)N(C)C)N(C)C(=O)[C@H](C2CCCC2)N(C)C(=O)C2(CCCC2)NC(=O)[C@@H]2CCCN2C(=O)[C@H](CCc2ccc(C(F)(F)F)c(Cl)c2)NC(=O)CN(C)C(=O)[C@@H]1Cc1ccc(C(F)(F)F)cc1` [PP0440] ([NMeL]I[Sar][Aze][NPrPhe(4-CF3)][Sar][hPhe(3-Cl-4-CF3)]P[Ac5c][NMeGly(cPent)][NMeD]-NMe2; lactam N-11), the “NRAS/KRAS (ratio of KD value with respect to GDP-bound NRAS wild-type protein to KD value with respect to KRAS)” value [1] was “C (A compound having a KD ratio of 0.1 or more and less than 3 is denoted as C)” and the “HRAS/KRAS (ratio of KD value with respect to GDP-bound HRAS wild-type protein to KD value with respect to KRAS)” value [2] was “B (a compound having 3 or more and less than 10 is denoted as B)”.

With `CCO[C@@H]1C[C@H]2C(=O)NC3(CC(C)(C)C3)C(=O)N(C)[C@@H](C3CCCC3)C(=O)N(C)[C@H](C(=O)N(C)C)CC(=O)N(C)[C@@H](CC(F)(F)F)C(=O)N[C@@H]([C@@H](C)CC)C(=O)N(C)CC(=O)N(C)[C@H]3C/C=C\CCN(C3=O)[C@@H](Cc3ccc(C(F)(F)F)cc3)C(=O)N(C)CC(=O)N[C@@H](CCc3ccc(C(F)(F)F)c(OC)c3)C(=O)N2C1` [PP1675] the “NRAS/KRAS (ratio of KD value for NRAS to KD value for KRAS)” value [1] was “A (a compound having 10 or more and less than 20 is denoted as A)” and the “HRAS/KRAS (ratio of KD value for HRAS to KD value for KRAS)” value [2] was “B (a compound having 3 or more and less than 10 is denoted as B)”.

For `CCCN(C)C(=O)[C@@H]1CC(=O)N(C)[C@@H](CC)C(=O)N[C@@H]([C@@H](C)CC)C(=O)N(C)CC(=O)N(C)[C@H]2C/C=C\CCN(C2=O)[C@@H](Cc2ccc(C(F)(F)F)cc2)C(=O)N(C)CC(=O)N[C@@H](CCc2cc(F)c(C(F)(F)F)c(F)c2)C(=O)N2C[C@H](OCC)C[C@H]2C(=O)NC2(CC(C)(C)C2)C(=O)N(C)[C@@H](C2CCCC2)C(=O)N1C` [PP1670], the “NRAS/KRAS (ratio of KD value for NRAS to KD value for KRAS)” value [1] was “A (a compound having 10 or more and less than 20 is denoted as A)” and the “HRAS/KRAS (ratio of KD value for HRAS to KD value for KRAS)” value [2] was “A (a compound having 10 or more and less than 20 is denoted as A)”.
